Assay results from PMC9412534, “Diindolylmethane Derivatives: New Selective Blockers for T-Type Calcium Channels” (Membranes, 2022).

Test system: voltage-gated calcium channels (VGCC)
Assay: VGCC FLIPR cell-based assays, all channels (overall observation)
Design: species or system human
Procedure: HEK 293 cells stably expressing CaV3.2 or CaV3.3 were seeded into 384-well black wall clear bottom plates (Corning) at a density of 30,000 cells per well. Transiently transfected CaV3.1HEK293 T cells were seeded into 384-well black wall clear bottom plates at a density of 60,000 cells per well. Once the cells reached 90–95% confluence after 24 h, the media were removed from the wells and replaced with 20 μL of 10% calcium 4 dye (Molecular Devices, Sunnyvale, CA, USA) in HBSS-HEPES (containing 5 mM KCl, 10 mM HEPES, 140 mM NaCl, 10 mM glucose, and 0.5 mM CaCl2, pH 7.4) with 0.1% bovine serum albumin (BSA). The cells were incubated for 30 min at 37 °C in the presence of 5% carbon dioxide. Each well on the reagent plates for the first addition contained 15 μL different concentrations of compounds dissolved in HBSS-HEPES containing 0.1% BSA and <0.5% DMSO and was incubated for 20 min after loaded. Positive and negative controls contained 15 μL of HBSS-HEPES (0.1% BSA) alone. The plates were placed in the FLIPR^TETRA (Molecular Devices, Sunnyvale, CA, USA) programmed to measure maximum fluorescence intensity following a second addition of the agonist 5 mM CaCl2. The fluorescence readings were recorded and converted as described previously, and HBSS-HEPES (0.1% BSA) was used in the second addition as a negative control.
SH-SY5Y cells were seeded into 384-well black wall clear bottom plates at a density of 15,000 cells per well, resulting in 90–95% confluence after 24 h. The media were then removed from the wells and replaced with 20 μL of 10% calcium 4 dye (Molecular Devices) in physiological salt solution (PSS) (containing 5.9 mM KCl, 1.4 mM MgCl2, 10 mM HEPES, 1.2 mM NaH2 PO4, 5 mM NaHCO3, 140 mM NaCl, 11.5 mM glucose, and 1.8 mM CaCl2, pH 7.4) with 0.1% BSA. As reported, for N-type calcium channel FLIPR assays the cells were pre-incubated with 10 µM nifedipine added in the dye to ensure full inhibition of L-type calcium responses. For L-type calcium channel FLIPR assays, the cells were pre-incubated with 1 µM CVID added in the dye to ensure full inhibition of N-type calcium responses. Positive control on the first reagent plate contained 15 μL of PSS (0.1% BSA), whereas PSS (0.1% BSA) containing 1 µM CVID and 10 µM nifedipine (final concentration) was used as a negative control. The fluorescence readings were recorded and converted as described previously, and agonist containing 90 mM KCl + 5 mM CaCl2 was used in the second addition.

For `O=C(c1c[nH]c2cc(Br)ccc12)c1c[nH]c2cc(Br)ccc12` [IV], the “inhibition of all the Ca2+ responses” value was “poor inhibition”.
